Test results published in US12122761B2, “2-azaspiro[3.4]octane derivatives as M4 agonists” (NOVARTIS AG, priority 2019, dated 2024).

How the values were obtained:
[1] = target: T1, human cloned CHRM2 receptor (M2_CHO cells) (Homo sapiens, UniProt P08172); assay: CHRM2 Ca++ Flux Assay (agonist mode, FDSS 7000EX); assay type: cell-based; conditions: for M2 FDSS PA: Percent Activity measured to EC100 of Carbachol
T1 construct: expressed in transfected cells; host or cells: CHO-K1
T1 sequence (P08172 1-466): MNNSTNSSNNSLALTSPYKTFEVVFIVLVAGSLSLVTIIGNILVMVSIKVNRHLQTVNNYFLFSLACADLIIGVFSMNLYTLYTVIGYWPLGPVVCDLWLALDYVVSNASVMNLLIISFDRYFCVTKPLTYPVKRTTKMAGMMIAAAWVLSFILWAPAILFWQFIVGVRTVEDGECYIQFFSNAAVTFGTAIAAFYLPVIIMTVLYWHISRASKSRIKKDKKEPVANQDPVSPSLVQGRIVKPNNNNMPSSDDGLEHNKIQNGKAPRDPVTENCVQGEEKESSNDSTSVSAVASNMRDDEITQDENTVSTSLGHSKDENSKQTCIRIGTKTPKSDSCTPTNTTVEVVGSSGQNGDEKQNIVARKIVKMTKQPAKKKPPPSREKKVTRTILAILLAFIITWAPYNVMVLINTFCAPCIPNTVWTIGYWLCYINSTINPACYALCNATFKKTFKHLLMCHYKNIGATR
In short: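 Agonist-mode Ca++ flux in CHO-K1 cells stably expressing human CHRM2, dye-loaded, then held 60 min at room temperature in buffer with 20 μM ATP before compound addition; traces read over 3 minutes. Four-parameter fit of triplicate wells; percent activity relative to Carbachol EC100.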

[2] = target: T2, human cloned CHRM5 receptor (M5_CHO) (Homo sapiens, UniProt P08912); assay: CHRM5 Ca++ Flux Assay (agonist mode, FDSS 7000EX); assay type: cell-based; conditions: for M5 FDSS PA: Percent Activity measured to EC100 of Carbachol; for EC50: agonist mode, geometric mean if tested more than once, read-out: M5 FDSS EC50
T2 construct: expressed in transfected cells; host or cells: CHO (M5_CHO)
T2 sequence (P08912 1-532): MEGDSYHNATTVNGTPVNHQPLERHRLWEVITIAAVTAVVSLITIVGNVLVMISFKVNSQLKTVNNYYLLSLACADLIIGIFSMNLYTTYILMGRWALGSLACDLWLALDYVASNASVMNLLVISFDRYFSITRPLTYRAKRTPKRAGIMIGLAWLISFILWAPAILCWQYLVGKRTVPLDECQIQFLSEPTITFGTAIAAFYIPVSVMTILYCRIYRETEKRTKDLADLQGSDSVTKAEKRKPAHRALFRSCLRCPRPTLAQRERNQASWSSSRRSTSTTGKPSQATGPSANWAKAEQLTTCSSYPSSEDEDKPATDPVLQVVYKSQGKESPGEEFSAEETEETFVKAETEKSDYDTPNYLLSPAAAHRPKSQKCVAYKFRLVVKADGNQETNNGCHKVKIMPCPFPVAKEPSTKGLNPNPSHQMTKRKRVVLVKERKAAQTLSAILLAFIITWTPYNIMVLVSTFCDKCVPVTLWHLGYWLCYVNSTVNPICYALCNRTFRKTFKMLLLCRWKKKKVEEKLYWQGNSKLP
In short: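 Fluorescent intracellular Ca++ signal, recorded for 3 min, served as read-out for CHO-K1 cells stably carrying human M3 or M5 receptor. Triplicate 11-point dose responses were averaged and fitted to a four-parameter model, with percent activity referenced to the carbachol EC100.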

SMILES	M2 FDSS PA [1] [%]	M5 FDSS PA [2] [%]	EC50 [2] [µM]	EC50 ([1]; agonist mode, geometric mean if tested more than once, read-out: M2 FDSS EC50) [µM]
O=C(N1CC2(CC[C@@H](N3CCC(c4ccccc4OC(F)(F)F)CC3)C2)C1)C1(F)CC1 (single isomer, unassigned) [Example 9B, (R)-(1-fluorocyclopropyl)(6-(4-(2-(trifluoromethoxy)phenyl)piperidin-1-yl)-2-azaspiro[3.4]octan-2-yl)methanone or (S)-(1-fluorocyclopropyl)(6-(4-(2-(trifluoromethoxy)phenyl)piperidin-1-yl)-2-azaspiro[3.4]octan-2-yl)methanone]	0	0	> 25	
O=C(N1CC2(CC[C@@H](N3CCC(c4cc(F)ccc4OC4CCOCC4)CC3)C2)C1)C1(F)CC1 (single isomer, unassigned) [Example 9C, (R)-(6-(4-(5-fluoro-2-((tetrahydro-2H-pyran-4-yl)oxy)phenyl)piperidin-1-yl)-2-azaspiro[3.4]octan-2-yl)(1-fluorocyclopropyl)methanone or (S)-(6-(4-(5-fluoro-2-((tetrahydro-2H-pyran-4-yl)oxy)phenyl)piperidin-1-yl)-2-azaspiro[3.4]octan-2-yl)(1-fluorocyclopropyl)methanone]	0	0	> 25	
O=C(N1CC2(CC[C@@H](N3CCC(c4cc(F)ccc4OC4CCOCC4)CC3)C2)C1)C1(F)CC1 (single isomer, unassigned) [Example 9D, (R)-(6-(4-(5-fluoro-2-((tetrahydro-2H-pyran-4-yl)oxy)phenyl)piperidin-1-yl)-2-azaspiro[3.4]octan-2-yl)(1-fluorocyclopropyl)methanone or (S)-(6-(4-(5-fluoro-2-((tetrahydro-2H-pyran-4-yl)oxy)phenyl)piperidin-1-yl)-2-azaspiro[3.4]octan-2-yl)(1-fluorocyclopropyl)methanone]	0	0	> 25	< 26
O=C(N1CC2(CC[C@@H](N3CCC(c4ccccc4OC4CCOCC4)CC3)C2)C1)C1(F)CC1 (single isomer, unassigned) [Example 9E, (R)-(1-fluorocyclopropyl)(6-(4-(2-((tetrahydro-2H-pyran-4-yl)oxy)phenyl)piperidin-1-yl)-2-azaspiro[3.4]octan-2-yl)methanone or (S)-(1-fluorocyclopropyl)(6-(4-(2-((tetrahydro-2H-pyran-4-yl)oxy)phenyl)piperidin-1-yl)-2-azaspiro[3.4]octan-2-yl)methanone]	0	0	> 25	
O=C(N1CC2(CC[C@@H](N3CCC(c4ccccc4OC4CCOCC4)CC3)C2)C1)C1(F)CC1 (single isomer, unassigned) [Example 9F, (R)-(1-fluorocyclopropyl)(6-(4-(2-((tetrahydro-2H-pyran-4-yl)oxy)phenyl)piperidin-1-yl)-2-azaspiro[3.4]octan-2-yl)methanone or (S)-(1-fluorocyclopropyl)(6-(4-(2-((tetrahydro-2H-pyran-4-yl)oxy)phenyl)piperidin-1-yl)-2-azaspiro[3.4]octan-2-yl)methanone]	0	0	> 25	
O=C(N1CC2(CC[C@@H](N3CCC(c4ccccc4C4(O)CCOCC4)CC3)C2)C1)C1(F)CC1 (single isomer, unassigned) [Example 9G, (R)-(1-fluorocyclopropyl)(6-(4-(2-(4-hydroxytetrahydro-2H-pyran-4-yl)phenyl)piperidin-1-yl)-2-azaspiro[3.4]octan-2-yl)methanone or (S)-(1-fluorocyclopropyl)(6-(4-(2-(4-hydroxytetrahydro-2H-pyran-4-yl)phenyl)piperidin-1-yl)-2-azaspiro[3.4]octan-2-yl)methanone]	0	0	> 25	
O=C(N1CC2(CC[C@@H](N3CCC(c4ccccc4C4(O)CCOCC4)CC3)C2)C1)C1(F)CC1 (single isomer, unassigned) [Example 9H, (R)-(1-fluorocyclopropyl)(6-(4-(2-(4-hydroxytetrahydro-2H-pyran-4-yl)phenyl)piperidin-1-yl)-2-azaspiro[3.4]octan-2-yl)methanone or (S)-(1-fluorocyclopropyl)(6-(4-(2-(4-hydroxytetrahydro-2H-pyran-4-yl)phenyl)piperidin-1-yl)-2-azaspiro[3.4]octan-2-yl)methanone]	0	0	> 25	
O=C(N1CC2(CC[C@@H](N3CCC(c4cc(F)ccc4C4(O)CCOCC4)CC3)C2)C1)C1(F)CC1 (single isomer, unassigned) [Example 9I, (R)-(6-(4-(5-fluoro-2-(4-hydroxytetrahydro-2H-pyran-4-yl)phenyl)piperidin-1-yl)-2-azaspiro[3.4]octan-2-yl)(1-fluorocyclopropyl)methanone or (S)-(6-(4-(5-fluoro-2-(4-hydroxytetrahydro-2H-pyran-4-yl)phenyl)piperidin-1-yl)-2-azaspiro[3.4]octan-2-yl)(1-fluorocyclopropyl)methanone]	0	0	> 25	
O=C(N1CC2(CC[C@@H](N3CCC(c4cc(F)ccc4C4(O)CCOCC4)CC3)C2)C1)C1(F)CC1 (single isomer, unassigned) [Example 9J, (R)-(6-(4-(5-fluoro-2-(4-hydroxytetrahydro-2H-pyran-4-yl)phenyl)piperidin-1-yl)-2-azaspiro[3.4]octan-2-yl)(1-fluorocyclopropyl)methanone or (S)-(6-(4-(5-fluoro-2-(4-hydroxytetrahydro-2H-pyran-4-yl)phenyl)piperidin-1-yl)-2-azaspiro[3.4]octan-2-yl)(1-fluorocyclopropyl)methanone]	0	0	> 25	
O=C(N1CC2(CC[C@@H](N3CCC(c4cc(F)ccc4C4CCOCC4)CC3)C2)C1)C1(F)CC1 (single isomer, unassigned) [Example 9K, (R)-(6-(4-(5-fluoro-2-(tetrahydro-2H-pyran-4-yl)phenyl)piperidin-1-yl)-2-azaspiro[3.4]octan-2-yl)(1-fluorocyclopropyl)methanone or (S)-(6-(4-(5-fluoro-2-(tetrahydro-2H-pyran-4-yl)phenyl)piperidin-1-yl)-2-azaspiro[3.4]octan-2-yl)(1-fluorocyclopropyl)methanone]	0	0	> 25	
O=C(N1CC2(CC[C@@H](N3CCC(c4cc(F)ccc4C4CCOCC4)CC3)C2)C1)C1(F)CC1 (single isomer, unassigned) [Example 9L, (R)-(6-(4-(5-fluoro-2-(tetrahydro-2H-pyran-4-yl)phenyl)piperidin-1-yl)-2-azaspiro[3.4]octan-2-yl)(1-fluorocyclopropyl)methanone or (S)-(6-(4-(5-fluoro-2-(tetrahydro-2H-pyran-4-yl)phenyl)piperidin-1-yl)-2-azaspiro[3.4]octan-2-yl)(1-fluorocyclopropyl)methanone]	0	0	> 25	
Fc1cncc(N2CC3(CC[C@@H](N4CCC(c5cc(F)ccc5OC5CCOCC5)CC4)C3)C2)c1 (single isomer, unassigned) [Example 10A, (R)-6-(4-(5-fluoro-2-((tetrahydro-2H-pyran-4-yl)oxy)phenyl)piperidin-1-yl)-2-(5-fluoropyridin-3-yl)-2-azaspiro[3.4]octane or (S)-6-(4-(5-fluoro-2-((tetrahydro-2H-pyran-4-yl)oxy)phenyl)piperidin-1-yl)-2-(5-fluoropyridin-3-yl)-2-azaspiro[3.4]octane]	42	0	> 25	
